Here are results for nine compounds from US7053116B2, “Methods for protecting cells from amyloid toxicity and for inhibiting amyloid protein production” (The Salk Institute for Biological Studies, priority 2000, dated 2006).

Where two headings read alike, the source gives them in different places. No end group written: not given here.

The subject of one data set is Primary astrocytes. Kind of data set: Astrocyte culture, quantitation of secreted cytokines (ELISA). It is filed as cell-based, rat. Particulars: astrocyte conditioned media; 10 μM peptide for 12 hr; mean ±S.E.M. Background: ELISA stands for enzyme-linked immunosorbent assay.
In data set [1] the test system is B12 cells. Particulars: for ability to induce MTT formazan exocytosis (in words): peptide preparations.
Protocol: MTT reduction and MTT formazan exocytosis MTT reduction by cultured cells was performed in 96-well microtiter plates containing 100 μl of medium per well. Cells (about 10^4 cells per well) were plated in Dulbecco's modified Eagles's medium (DMEM) supplemented with 5% dialyzed fetal calf serum and incubated overnight before drug treatment. MTT reduction was started by adding 10 μl per well of a 2.5 mg/ml MTT stock in phosphate-buffered saline (PBS) and terminated by adding 100 μl of a solubilization solution containing 50% N,N′-dimethylformamide and 20% sodium dodecyl sulfate (SDS; pH 4.8). […] MTT reduction is determined the next day by determining absorbance at 570 nm with an automatic microtiter plate reader, using 630 nm as the reference wavelength.
MTT reduction by living cells is initially observed as intracellular formazan granules, and needle-like formazan crystals begin to appear on the cell surface after about 30 min of MTT reduction.
Amyloid peptide-induced MTT formazan exocytosis was determined with B12 cells, as described herein. B12 cells on 35 mm dishes were treated with 10 μM for 16 hr at 37° C., followed by 30 min MTT reduction. The percentage of cells exocytosing MTT formazan with morphology similar to that induced by Aβ was then determined.
Data set [2] concerns B12 cells. Particulars: cited from earlier work; for enhancement of MTT formazan exocytosis: B12 cells, Liu and Schubert 1997; for induction of MTT formazan exocytosis by protein fibrils: fibrils formed under denaturing conditions, Liu and Schubert 1998.
Data set [3] concerns Aβ-induced MTT formazan exocytosis. Kind of data set: Blocking of Aβ-induced MTT formazan exocytosis by amyloid-binding agents. It is filed as cell-based. How it is done:
MTT formazan exocytosis is assessed by microscopic observation. The needle-like crystals on the surface of the cells incubated with MTT, which are easily visible under a light microscope, represent exocytosed MTT formazan (Liu et al. (1997) J. Neurochem. 69:581–593). The percentages of cells exocytosing MTT formazan were determined by counting 300 cells in multiple fields using the presence of needle-like formazan crystals on cell surface as an indicator of MTT formazan exocytosis. A cell is counted as exocytosing MTT formazan when several needle-like formazan crystals are clearly visible.
The involvement of β-sheeted amyloid fibrils in generating this phenomenon is supported by the observation that amyloid-binding agents such as Congo red block 90% of the Aβ-induced MTT formazan exocytosis. Under denaturing conditions, non-amyloidogenic proteins such as insulin and glucagon also form protein fibrils with the same cross β structure as that in amyloid fibrils (Glenner et al., J. Histochem. Cytochem. 22:1141–1158 (1974) and Burke et al. Biochem. 11:2435–2439 (1972)). […] Therefore, the ability to enhance cellular MTT formazan exocytosis is a common property of protein fibrils having a cross β-pleated sheet structure. […]

In data set [4] the test system is Hippocampal neurons. Kind of data set: Hippocampal neuronal cultures, assessment of neuronal viability.
Protocol: (§1) The cells were suspended in a serum-free medium and plated on polylysine-coated 24-well tissue culture plates (1×10^6 cells/ml). The serum-free medium used is a modified minimal essential medium containing 30 mM glucose, 2 mM glutamine, 1 mM pyruvate, penicillin (100 U/ml), streptomycin (100 μg/ml), and N1supplements (Sigma). After 3 days in culture, the neurons acquire long and extensively branched neurites. Half of the medium in each dish was then replaced with fresh medium, and test reagents (20 μM peptide solutions) were added. Neuron survival was assessed 48 hours after treatment. Neurons were judged to be viable by the intactness of their neurites and soma (absence of vacuoles and the ability to exclude trypan blue). Five fields (˜80 neurons/field) were scored in each culture. The number of viable neurons in untreated cultures was designated as 100% survival.
The next data set has as its system astrocytes. As to the kind of experiment: Astrocyte activation indicated by morphological changes. It is filed as cell-based, rat. Particulars: peptide preparations.
Data set [5] has as its system Hippocampal neurons.
Protocol: as §1

Protocol for Primary astrocytes: Astrocyte culture and quantitation of secreted cytokines Primary astrocytes were prepared from the cortices of 2-day-old Sprague-Dawley rat pups according the method of Levison and McCarthy (Culturing Nerve Cells in: G. Banker, and K. Goslin (eds.), MIT Press, Cambridge, Mass. 1991, pp. 309–336). The dissected cortices were dissociated enzymatically with trypsin and mechanically by passing through a fine pipette. The cells were cultured in α-MEM (Life Technologies, MD) containing 10% fetal bovine serum and antibiotics. After 11 days in culture, the primary cells were replated at a density of 10,000 cells/cm^2 and grown until confluent. At least 24 hr before treatment, the cells were washed twice with PBS and then incubated with serum-free α-MEM containing N2 supplements (Life Technologies, MD).
Cytokine Measurements For IL-1β and TNF-α measurements, 7.5×10^4 cells/well were plated in a 48-well tissue culture plate. After 48 hr of incubation in serum-free α-MEM containing N2 supplements, the cells were treated with 10 μM of various amyloid or non-amyloidogenic peptides for 12 hr. Conditioned media from duplicate wells for each sample were collected and stored at −80° C. until use. Cytokine levels in the conditioned media were determined by ELISA kits from R&D systems and performed according to the manufacturer's protocols.

GSNKGAIIGLM [Aβ25–35]: in the data set with Primary astrocytes, the “IL-1β” value is 754 ± 78 pg/mL and the “TNF-α” value was found to be 350 ± 46 pg/mL. For the same compound, the “ability to induce MTT formazan exocytosis (in words)” value (“ability” below) with B12 cells [1] was “always active”. The “enhancement of MTT formazan exocytosis” value in the data set with B12 cells [2] is “dramatically enhance”.

On to `Nc1c(/N=N/c2ccc(-c3ccc(/N=N/c4cc(S(=O)(=O)O)c5ccccc5c4N)cc3)cc2)cc(S(=O)(=O)O)c2ccccc12` [Congo red], for which the “block of the Aβ-induced MTT formazan exocytosis” value in data set [3] amounted to 90%.

In the case of “insulin: non-amyloidogenic protein forming fibrils with cross β structure under denaturing conditions”, the “induction of MTT formazan exocytosis by protein fibrils” value with B12 cells [2] was “induce MTT formazan exocytosis”.

In the case of `CC[C@H](C)[C@H](NC(=O)[C@H](C)NC(=O)CNC(=O)[C@H](Cc1ccccc1)NC(=O)[C@H](CC(N)=O)NC(=O)[C@H](CC(N)=O)NC(=O)[C@H](CO)NC(=O)[C@H](CO)NC(=O)[C@H](Cc1c[nH]cn1)NC(=O)[C@@H](NC(=O)[C@H](CC(C)C)NC(=O)[C@H](Cc1ccccc1)NC(=O)[C@H](CC(N)=O)NC(=O)[C@H](C)NC(=O)[C@H](CC(C)C)NC(=O)[C@H](CCCNC(=N)N)NC(=O)[C@H](CCC(N)=O)NC(=O)[C@@H](NC(=O)[C@H](C)NC(=O)[C@@H]1CSSC[C@H](NC(=O)[C@@H](N)CCCCN)C(=O)N[C@@H](CC(N)=O)C(=O)N[C@@H]([C@@H](C)O)C(=O)N[C@@H](C)C(=O)N[C@@H]([C@@H](C)O)C(=O)N1)[C@@H](C)O)C(C)C)C(=O)N[C@@H](CC(C)C)C(=O)N[C@@H](CO)C(=O)N[C@@H](CO)C(=O)N[C@H](C(=O)N[C@@H](CC(N)=O)C(=O)N[C@H](C(=O)NCC(=O)N[C@@H](CO)C(=O)N[C@@H](CC(N)=O)C(=O)N[C@H](C(=O)N[C@@H](Cc1ccc(O)cc1)C(N)=O)[C@@H](C)O)C(C)C)[C@@H](C)O` [Human amylin], in the data set on B12 cells [1] (percentage of B12 cells exocytosing MTT formazan, 10 μM for 16 hr at 37° C., followed by 30 min MTT reduction, mean ±S.E.M.), the “MTT (%)” value came to 97 ± 1 %. The “neurotoxicity to rat hippocampal neurons (in words)” value in the data set with Hippocampal neurons [4] (peptide preparations) is “kill rat hippocampal neurons”. Further, the “Viable Neurons (% of control)” value in the data set on Hippocampal neurons [4] (rat hippocampal neurons, 20 μM peptide solutions, 48 hours after treatment, mean ±S.E.M.) was 32 ± 7 % of control.

For “Aβ17-40: nonfibrillogenic peptide (LVFFAEDVGSNKGAIIGLMVGGVV; Amyloid-beta protein 40; UniProt P05067 688-711, looked up, fragment)”, the “enhancement of MTT formazan exocytosis” value with B12 cells [2] is listed as “do not enhance”.

Take “glucagon: non-amyloidogenic protein forming fibrils with cross β structure under denaturing conditions”: the “induction of MTT formazan exocytosis by protein fibrils” value in the data set on B12 cells [2] was “induce MTT formazan exocytosis”.

Aβ1-28: nonfibrillogenic peptide: the “enhancement of MTT formazan exocytosis” value in the data set with B12 cells [2] is “do not enhance”.

For the compound `CC(C)C[C@H](NC(=O)[C@H](CC(N)=O)NC(=O)[C@H](CC(N)=O)NC(=O)[C@H](CO)NC(=O)[C@H](CO)NC(=O)[C@H](CCCNC(=N)N)NC(=O)[C@@H](NC(=O)[C@H](CC(C)C)NC(=O)[C@H](Cc1ccccc1)NC(=O)[C@H](CC(N)=O)NC(=O)[C@H](C)NC(=O)[C@H](CC(C)C)NC(=O)[C@H](CCCNC(=N)N)NC(=O)[C@H](CCC(N)=O)NC(=O)[C@@H](NC(=O)[C@H](C)NC(=O)[C@@H]1CSSC[C@H](NC(=O)[C@@H](N)CCCCN)C(=O)N[C@@H](CC(N)=O)C(=O)N[C@@H]([C@@H](C)O)C(=O)N[C@@H](C)C(=O)N[C@@H]([C@@H](C)O)C(=O)N1)[C@@H](C)O)C(C)C)C(=O)NCC(=O)N1CCC[C@H]1C(=O)N[C@H](C(=O)N[C@@H](CC(C)C)C(=O)N1CCC[C@H]1C(=O)N1CCC[C@H]1C(=O)N[C@H](C(=O)N[C@@H](CC(N)=O)C(=O)N[C@H](C(=O)NCC(=O)N[C@@H](CO)C(=O)N[C@@H](CC(N)=O)C(=O)N[C@H](C(=O)N[C@@H](Cc1ccc(O)cc1)C(N)=O)[C@@H](C)O)C(C)C)[C@@H](C)O)C(C)C` [Rat amylin], in the data set with Primary astrocytes, the “IL-1β” value was determined as 46 ± 7 pg/mL and the “TNF-α” value was 48 ± 8 pg/mL. Further, in the data set on astrocytes, the “astrocyte activation as indicated by the morphological changes of the astrocytes (in words)” value is listed as “not active”. Moreover, the “ability” value in the data set with B12 cells [1] is “not active”. The “neurotoxicity to rat hippocampal neurons (in words)” value in the data set on Hippocampal neurons [5] was “not active”. Further, the “enhancement of MTT formazan exocytosis” value in the data set on B12 cells [2] was “do not enhance”.

Turning to “Aβ1-40: amyloid beta 1-40, 40 amino acid form of amyloid beta peptide; lot not specified”, in the data set with B12 cells [1], the “ability” value is “variable among different manufacturer's lots”. For the same compound, the “enhancement of MTT formazan exocytosis” value with B12 cells [2] is recorded as “dramatically enhance”.
